Assay results taken from patent publication US5677282A (Proscript, Inc., priority 1995, dated 1997).

biological target: stromelysin (Homo sapiens, UniProt P08254); assay: Assay of stromelysin inhibition activity (fluorogenic coumarin peptide substrate); assay type: biochemical; conditions: trypsin-activated stromelysin 2 nM, H-150 buffer pH 7.4, room temperature; read-out: Ki(app)
Method: Stromelysin was first activated with trypsin. This was done by preparing a reaction mixture in H-150 (H-150 consists of 10 mM CaCl2, 150 mM NaCl and 100 mM HEPES at pH 7.4) containing a final concentration of 25 μg/mL trypsin and 2.2 μM of stromelysin (Marcy et al., Biochemistry,30:6476 (1991); Koklitis et al., Biochem. J., 376:217 (1991). The reaction was incubated for 30 minutes at 37° C. and then quenched by adding trypsin inhibitor agarose to the reaction mixture at a 20 fold excess with respect to trypsin.
The reaction mixture was centrifuged at 14,000 rpm (16,000 ×g) for 30 minutes using an Eppendorf Centrifuge 5415C. The supernant, which contains activated stromelysin, was concentrated with a Centricon 10 (5000 g, 1 hour). A sample was analyzed by Bradford total protein assay and 12% SDS polyacrylamide gel electrophoresis.
All steps of the stromelysin inhibition assay were performed at room temperature. Assay solutions were prepared for each inhibitor tested. Activated stromelysin was added to a stirred covelte to a final concentration of 2 nM in 2 mL of H-150 buffer. 4 μL 5 mM coumarin peptide substrate was dissolved in DMSO and the initial rate of hydrolysis was measured for 100-200 seconds.
Substrate hydrolysis was assessed by fluorescence using a slit width of 10:10, excitation at 328 nm and emission at 393 nm. Ki was calculated based on the assumption of simple competitive inhibition and a substrate concentration much less than Km. 2 μL of 10 mM inhibitor in DMSO was added and the reduction in hydrolysis rate measured. The addition of 2 μL of inhibitor was continued until a 30-70% inhibition was observed.

Chain of stromelysin (P08254 100-477): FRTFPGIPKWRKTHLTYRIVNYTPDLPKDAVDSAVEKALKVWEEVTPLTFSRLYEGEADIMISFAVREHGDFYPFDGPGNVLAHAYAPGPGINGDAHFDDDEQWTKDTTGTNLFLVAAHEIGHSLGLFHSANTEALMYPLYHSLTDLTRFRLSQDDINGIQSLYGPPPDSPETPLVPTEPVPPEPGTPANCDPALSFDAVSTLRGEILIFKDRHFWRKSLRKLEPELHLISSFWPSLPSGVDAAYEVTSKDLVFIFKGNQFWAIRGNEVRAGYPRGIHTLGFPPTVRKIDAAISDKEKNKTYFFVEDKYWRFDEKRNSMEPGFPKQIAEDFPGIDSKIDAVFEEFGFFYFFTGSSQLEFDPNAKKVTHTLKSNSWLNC

Compound | Ki [nM]
CC(C)[C@H](NC(=O)[C@H](Cc1cccc2ccccc12)NC(=O)OCc1ccccc1)C(=O)Nc1n[nH]c(=S)s1 | 190
CC(C)[C@H](NC(=O)[C@H](Cc1cc(I)c(O)c(I)c1)NC(=O)OCc1ccccc1)C(=O)Nc1n[nH]c(=S)s1 | 97
CC(C)(C)[C@H](NC(=O)[C@H](Cc1ccc(OCc2ccccc2)cc1)NC(=O)OCc1ccccc1)C(=O)Nc1n[nH]c(=S)s1 | 89
O=C(N[C@@H](Cc1ccc(OCc2ccccc2)cc1)C(=O)N[C@H](C(=O)Nc1n[nH]c(=S)s1)C1CCCCC1)OCc1ccccc1 | 71
CC(C)[C@H](NC(=O)[C@@H](NC(=O)OCc1ccccc1)C1CCCCC1)C(=O)Nc1n[nH]c(=S)s1 | 180
NCCCC[C@H](NC(=O)OCc1ccccc1)C(=O)N[C@@H](Cc1ccc(OCc2ccccc2)cc1)C(=O)N[C@H](C(=O)Nc1n[nH]c(=S)s1)c1ccccc1 | 1890
CSc1ncccc1C(=O)NC(Cc1ccccc1)C(=O)NC(C(=O)Nc1n[nH]c(=S)s1)C(C)C (centres unmarked) [5-(N-(2-methylthionicotyl)phenylalanyl-valyamino)-1,3,4-thiadiazole-2-thione] | 917
CC(C)[C@H](NC(=O)[C@H](Cc1ccccc1)NS(=O)(=O)c1cccc2cccnc12)C(=O)Nc1n[nH]c(=S)s1 [5-(N-(8-quinolinesulfonyl)phenylalanyl-valylamino-1,3,4-thiadiazole-2-thione] | 531
CCCC(NC(=O)OCC1c2ccccc2-c2ccccc21)C(=O)Nc1n[nH]c(=S)s1 (centres unmarked) [5-(N-(9-fluorenylmethoxycarbonyl-norvalyl)-1,3,4-thiadiazole-2-thione] | 509
CC(C)[C@H](NC(=O)[C@H](Cc1ccccc1F)NC(=O)OCc1ccccc1)C(=O)Nc1n[nH]c(=S)s1 [5-(N-Benzyloxycarbonyl-(2-flouro)phenyl-valylamino)-1,3,4-thiadiazole-2-thione] | 633
CC[C@H](C)[C@H](NC(=O)OCc1ccccc1)C(=O)N[C@H](C(=O)Nc1n[nH]c(=S)s1)C(C)C [5-(N-Benzyloxycarbonyl-isoleucyl-valylamino)-1,3,4-thiadiazole-2-thione] | 940
CC(=O)N[C@@H](CC(C)C)C(=O)N[C@@H](CC(C)C)C(=O)Nc1n[nH]c(=S)s1 [5-(N-acetyl-leucyl-leucylamino)-1,3,4-thiadiazole-2-thione] | 6440
CC(C)(NC(=O)C(Cc1ccc(OCc2ccccc2)cc1)NC(=O)OCc1ccccc1)C(=O)Nc1n[nH]c(=S)s1 (centres unmarked) [5-(N-benzyloxycarbonyl-((O-benzyl)tyrosyl)-amino-isobutyroylamino)-1,3,4-thiadiazole-2-thione] | 237
O=C(N[C@@H](Cc1ccccc1F)C(=O)Nc1n[nH]c(=S)s1)OCc1ccccc1 [5-(N-benzyloxycarbonyl-(ortho-fluoro)phenylalanylamino)-1,3,4-thiadiazole-2-thione] | 630
CSCC[C@H](NC(=O)[C@H](CC(C)C)NC(=O)OCc1ccccc1)C(=O)Nc1n[nH]c(=S)s1 [5-(N-benzyloxycarbonyl-leucyl-methionylamino)-1,3,4-thiadiazole-2-thione] | 490
CC(C)C[C@H](NC(=O)OCc1ccccc1)C(=O)N[C@@H](Cc1ccc(O)cc1)C(=O)Nc1n[nH]c(=S)s1 [5-(N-benzyloxycarbonyl-leucyl-tyrosylamino-1,3,4-thiadiazole-2-thione] | 1300
CC(C)C[C@H](NC(=O)OCc1ccccc1)C(=O)N[C@H](C(=O)Nc1n[nH]c(=S)s1)C(C)C [5-(N-benzyloxycarbonyl-leucyl-valylamino)-1,3,4-thiadiazole-2-thione] | 660
O=C(CNC(=O)[C@H](Cc1ccccc1)NC(=O)OCc1ccccc1)Nc1n[nH]c(=S)s1 [5-(N-benzyloxycarbonyl-phenylalanyl-glycylamino)-1,3,4-thiadiazole-2-thione] | 3950
O=C(N[C@@H](Cc1ccccc1)C(=O)Nc1n[nH]c(=S)s1)OCc1ccccc1 [5-(N-benzyloxycarbonyl-phenylalanylamino)-1,3,4-thiadiazole-2-thione] | 2360
CC(C)C[C@H](NC(=O)[C@@H]1CCCN1C(=O)OCc1ccccc1)C(=O)N[C@@H](C)C(=O)Nc1n[nH]c(=S)s1 [5-(N-benzyloxycarbonyl-prolyl-leucyl-alanylamino)-1,3,4-thiadiazole-2-thione] | 1740
O=C(N[C@@H](Cc1c[nH]c2ccccc12)C(=O)Nc1n[nH]c(=S)s1)OCc1ccccc1 [5-(N-benzyloxycarbonyl-tryptonylamino)-1,3,4-thiadiazole-2-thione] | 3370
CC(C)[C@H](NC(=O)[C@H](Cc1c[nH]c2ccccc12)NC(=O)OCc1ccccc1)C(=O)Nc1n[nH]c(=S)s1 [5-(N-benzyloxycarbonyl-tryptoyl-valylamino)-1,3,4-thiadiazole-2-thione] | 741
CC(C)(C)OC(=O)N[C@@H](CCc1ccccc1)C(=O)Nc1n[nH]c(=S)s1 [5-(N-t-butoxycarbonyl-homophenylalanylamino)-1,3,4-thiadiazole-2-thione] | 11900

Second part, the compound after the results:

Ki [nM] | Compound
205 | O=C(N[C@@H](Cc1ccc(N(Cc2ccccc2)Cc2ccccc2)cc1)C(=O)NC(C(=O)Nc1n[nH]c(=S)s1)c1ccccc1)OCc1ccccc1 (some centres unmarked) [5(N-benzyloxycarbonyl-(N',N'-dibenzylamino)phenylalanine-phepylglycylamino)-1,3,4-thiadiazole-2-thione]
195 | CSCC[C@H](NC(=O)OCC1c2ccccc2-c2ccccc21)C(=O)Nc1n[nH]c(=S)s1 [5-(N-9-fluorenylmethoxycarbonyl)methionylamino)-1,3,4-thiadiazole-2-thione]
61 | CC(C)C(NC(=O)C(Cc1ccccc1)NC(=O)c1ccc(OCc2ccccc2)cc1)C(=O)Nc1n[nH]c(=S)s1 (centres unmarked) [5-(N-(4-benzyloxy)benzoyl-phenylalanyl-valylamino)-1,3,4-thiadiazole-2-thione]
184 | CC(C)C[C@H](NC(=O)OCC1c2ccccc2-c2ccccc21)C(=O)Nc1n[nH]c(=S)s1 [5-(N-(9-fluorenylmethoxycarbonyl)leucylamino)-1,3,4-thiadiazole-2-thione]
341 | O=C(N[C@@H](Cc1c[nH]c2ccccc12)C(=O)Nc1n[nH]c(=S)s1)OCC1c2ccccc2-c2ccccc21 [5-(N-(9-fluorenylmethoxycarbonyl)tryptonylamino)-1,3,4-thiadiazole-2-thione]
62 | CC(C)C(NC(=O)C(Cc1ccc(OCc2ccc3ccccc3c2)cc1)NC(=O)OCc1ccccc1)C(=O)Nc1n[nH]c(=S)s1 (centres unmarked) [5-(N-benzyloxycarbonyl((O-methylene-2-naphthyl)tyrosyl)-valylamino)-1,3,4-thiadiazole-2-thione]
156 | CC(C)[C@H](NC(=O)[C@H](Cc1ccc(F)cc1)NC(=O)OCc1ccccc1)C(=O)Nc1n[nH]c(=S)s1 [5-(N-benzyloxycarbonyl(para-F)phenylalanyl-valylamino)-1,3,4-thiadiazole-2-thione]
221 | CC(C)[C@H](NC(=O)[C@H](Cc1ccc2ccccc2c1)NC(=O)OCc1ccccc1)C(=O)Nc1n[nH]c(=S)s1 [5-(N-benzyloxycarbonyl-(2-(2-naphthyl)alanyl-valylamino)-1,3,4-thiadiazole-2-thione]
50 | O=C(CC[C@H](NC(=O)OCc1ccccc1)C(=O)NC(C(=O)Nc1n[nH]c(=S)s1)c1ccccc1)NC(c1ccccc1)(c1ccccc1)c1ccccc1 (some centres unmarked) [5-(N-benzyloxycarbonyl-((γ-N-trityl)glutamyl)-phenylglycylamino)-1,3,4-thiadiazole-2-thione]
236 | CC(C)[C@H](NC(=O)[C@H](COCc1ccccc1)NC(=O)OCc1ccccc1)C(=O)Nc1n[nH]c(=S)s1 [5-(N-benzyloxycarbonyl-(O-benzyl)seryl-valylamino)-1,3,4-thiadiazole-2-thione]
19 | O=C(NC(CCC(=O)N(Cc1ccccc1)Cc1ccccc1)C(=O)NC(C(=O)Nc1n[nH]c(=S)s1)c1ccccc1)OCc1ccccc1 (centres unmarked) [5-(N-benzyloxycarbonyl-(γ-N,N-dibenzyl)glutamyl-phenylglycylamino)-1,3,4-thiadiazole2-thione]
148 | CC(C)(C)OC(=O)NCCCC[C@H](NC(=O)OCc1ccccc1)C(=O)N[C@@H](Cc1ccc(OCc2ccccc2)cc1)C(=O)NC(C(=O)Nc1n[nH]c(=S)s1)c1ccccc1 (some centres unmarked) [5-(N-benzyloxycarbonyl-lysyl(N-ε-t-butyloxycarbonyl)-tyrosyl(O-benzyl)-phenylglycylamino-1,3,4-thiadiazole-2-thione]
273 | CC(C)[C@H](NC(=O)[C@H](Cc1ccccc1)NC(=O)OCc1ccccc1)C(=O)N[C@@H](Cc1c[nH]c2ccccc12)C(=O)Nc1n[nH]c(=S)s1 [5-(N-benzyloxycarbonyl-phenylalanyl-valyl-tryptonylamino)-1,3,4-thiadiazole-2-thione]
267 | CC(C)[C@H](NC(=O)[C@H](Cc1ccccc1)NC(=O)CCc1ccccc1)C(=O)Nc1n[nH]c(=S)s1 [5-(N-hydrocinamoyl-phenylalanyl-valylamino-1,3,4-thiadiazole-2-thione]
83 | CCCCCCCCC(=O)N[C@@H](Cc1ccccc1)C(=O)N[C@H](C(=O)Nc1n[nH]c(=S)s1)C(C)C [5-(N-nonanoyl-phenylalanyl-valylamino)-1,3,4-thiadiazole-2-thione]
